# Reference: patent publication US20120214847A1, “2-[1-PHENYL-5-HYDROXY-4a-SUBSTITUTED-HEXAHYDROCYCLOPENTA[F]INDAZOL-5-YL]ETHYL PHENYL DERIVATIVES AS GLUCOCORTICOID RECEPTOR LIGANDS” (Merck Sharp & Dohme Corp., priority 2009, published 2012)
# Target: T1, human GR (Homo sapiens, UniProt P04150)
# T1 construct: naturally expresses the human GR; endogenous in cells
# T1 sequence (P04150 1-777): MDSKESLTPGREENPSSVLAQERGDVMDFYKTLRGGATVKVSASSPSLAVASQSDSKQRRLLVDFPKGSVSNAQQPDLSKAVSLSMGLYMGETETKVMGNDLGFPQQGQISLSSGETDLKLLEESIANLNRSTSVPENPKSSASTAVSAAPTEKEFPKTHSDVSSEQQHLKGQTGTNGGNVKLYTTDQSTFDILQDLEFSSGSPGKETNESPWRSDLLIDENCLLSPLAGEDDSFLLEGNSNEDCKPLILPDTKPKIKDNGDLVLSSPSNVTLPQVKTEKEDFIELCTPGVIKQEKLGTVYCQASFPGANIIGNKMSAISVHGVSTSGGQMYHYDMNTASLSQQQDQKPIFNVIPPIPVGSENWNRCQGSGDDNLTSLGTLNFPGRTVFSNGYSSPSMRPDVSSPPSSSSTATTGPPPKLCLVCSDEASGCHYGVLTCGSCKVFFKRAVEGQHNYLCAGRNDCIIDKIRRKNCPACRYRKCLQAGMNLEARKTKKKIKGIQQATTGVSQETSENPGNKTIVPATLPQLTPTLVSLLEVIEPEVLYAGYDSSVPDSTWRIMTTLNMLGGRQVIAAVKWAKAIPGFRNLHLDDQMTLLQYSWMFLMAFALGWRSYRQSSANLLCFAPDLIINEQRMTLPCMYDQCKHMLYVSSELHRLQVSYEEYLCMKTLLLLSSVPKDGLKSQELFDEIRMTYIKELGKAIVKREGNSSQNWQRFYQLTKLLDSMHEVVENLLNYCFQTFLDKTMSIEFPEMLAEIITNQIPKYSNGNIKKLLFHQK
# Experiment: Trans-activation modulation of glucocorticoid receptor (GRAMMER), MMTV-LUC reporter in A549 cells
# Format: cell-based
# Conditions: for Emax: A549, A549 cells, Emax relative to the activity obtained with 300 nM dexamethasone, read-out: Transactivation A549 Cells Grammer Emax (%); for EC50: A549 cells, IP = inflection point, read-out: Transactivation A549 Cells Grammer IP
# Excerpt: Trans-Activation Modulation of Glucocorticoid Receptor (GRAMMER)
# This assay assesses the ability of test compounds to control transcription from the MMTV-LUC reporter gene in lung adenocarcinoma A549 cells or HeLa cells, a human […] cell line that naturally expresses the human GR. The assay measures induction of a modified MMTV LTR/promoter linked to the LUC reporter gene.
# The routine transient assay consists of plating 7,000-25,000 cells/well of a white, clear-bottom 96-well plate. Alternatively, 384-well plates can be used at a cell concentration of 10,000/well. The media that the cells are plated in is “exponential growth medium” which consists of phenol red-free RPMI1640 containing 10% FBS, 4 mM L-glutamine, 20 mM HEPES, 10 ug/mL human insulin, and 20 ug/mL gentamicin. Incubator conditions are 37° C. and 5% C02. The transfection is done in batch mode. The cells are trypsinized and counted to the right cell number in the proper amount of fresh media. It is then gently mixed with the FuGene6/DNA 25 mix and plated onto the 96 or 384-well plate, all the wells receive 100 uL or 40 uL, respectively, of medium+lipid/DNA complex then incubated 37° C. overnight. The transfection cocktail consists of serum-free OptiMEM, FuGene6 reagent and DNA. The manufacturer's (Roche Biochemical) protocol for cocktail setup is as follows: The lipid to DNA ratio is approximately 2.5:1 and the incubation time is 20 min at room temperature. Sixteen to 24 h after transfection, the cells are treated with dexamethasone to a final concentration of 10 nM as well as the compound of interest, such that final DMSO (vehicle) concentration is equal to or less than 1%. Each plate also contains samples that are treated with 10 nM dexamethasone alone, which is used as the 100% activity control. The cells are exposed to the compounds for 24 h. After 24 h, the cells are lysed by a Promega cell culture lysis buffer for approximately 30 min and then the luciferase activity in the extracts is assayed in the 96-well format luminometer. In 384 well format, Steady-Glo (Promega) or Steady-Lite (PerkinElmer) can be used by adding an equal volume of reagent to the media present in each well. Activity induced by 10 nM dexamethasone alone is set at 100% activity. Antagonist activity is calculated by determining the decrease in dexamethasone-induced activity in response to compound treatment relative to samples that were treated with dexamethasone alone. Results are expressed as % inhibition of 10 nM dexamethasone activity or as fold of 10 nM dexamethasone activity. This transactivation assay can be performed in an agonist and antagonist mode to identify these different activities.
# Activity of test compounds is calculated as the Emax relative to the activity obtained with 300 nM dexamethasone. […] The exemplified tissue selective glucocorticoid receptor modulators of the present invention display agonist activity in this assay of greater than 5% and less than 100%, and maximal transactivation activity less then maximal transrepression activity. The action of compounds is also tested in an antagonist mode (Anti-GRAMMER) in which the cells are treated with medium containing an agonist such as 10 nM DEX and the ability of agents to inhibit the activation by an agonist is measured.
SMILES,Emax [%],EC50 [nM]
"COc1cccc(CC[C@]2(O)CCC3=Cc4c(cnn4-c4ccc(F)cc4)C[C@@]32C2CC2)c1C(N)=O [Example 38, 2-{2-[(4aR,5R)-4a-Cyclopropyl-1-(4-fluorophenyl)-5-hydroxy-1,4,4a,5,6,7-hexahydrocyclopenta[f]indazol-5-yl]ethyl}-6-methoxybenzamide]",11,10
"NC(=O)c1cc(F)ccc1CC[C@]1(O)CCC2=Cc3c(cnn3-c3ccc(F)cc3)C[C@@]21C1CC1 [Example 39, 2-{2-[(4aR,5R)-4a-Cyclopropyl-1-(4-fluorophenyl)-5-hydroxy-1,4,4a,5,6,7-hexahydrocyclopenta[f]indazol-5-yl]ethyl}-5-fluorobenzamide]",14,116
"CC[C@]12Cc3cnn(-c4ccc(F)cc4)c3C=C1CC[C@@]2(O)CCc1ccccc1S(=O)(=O)C(C)C [Example 40, (4aS,5R)-4a-Ethyl-1-(4-fluorophenyl)-5-{2-[2-(propan-2-ylsulfonyl)phenyl]ethyl}-1,4,4a,5,6,7-hexahydrocyclopenta[f]indazol-5-ol]",36,101
"CC[C@]12Cc3cnn(-c4ccc(F)cc4)c3C=C1CC[C@@]2(O)CCc1nccc(C2CC2)c1C(=O)OC [Example 41, Methyl 4-cyclopropyl-2-{2-[(4aS,5R)-4a-ethyl-1-(4-fluorophenyl)-5-hydroxy-1,4,4a,5,6,7-hexahydrocyclopenta[f]indazol-5-yl]ethyl}pyridine-3-carboxylate]",28,138
"CC[C@]12Cc3cnn(-c4ccc(F)cc4)c3C=C1CC[C@@]2(O)CCc1ccccc1S(C)(=O)=O [Example 42, (4aS,5R)-4a-Ethyl-1-(4-fluorophenyl)-5-{2-[2-(methylsulfonyl)phenyl]ethyl}-1,4,4a,5,6,7-hexahydrocyclopenta[f]indazol-5-ol]",34,16
"NC(=O)CNC(=O)c1cccnc1CC[C@]1(O)CCC2=Cc3c(cnn3-c3ccc(F)cc3)C[C@@]21C1CC1 [Example 43, N-(2-Amino-2-oxoethyl)-2-{2-[(4aR,5R)-4a-cyclopropyl-1-(4-fluorophenyl)-5-hydroxy-1,4,4a,5,6,7-hexahydrocyclopenta[f]indazol-5-yl]ethyl}pyridine-3-carboxamide]",47,260
"NC(=O)CNC(=O)c1cc(F)cnc1CC[C@]1(O)CCC2=Cc3c(cnn3-c3ccc(F)cc3)C[C@@]21C1CC1 [Example 44, N-(2-Amino-2-oxoethyl)-2-{2-[(4aR,5R)-4a-cyclopropyl-1-(4-fluorophenyl)-5-hydroxy-1,4,4a,5,6,7-hexahydrocyclopenta[f]indazol-5-yl]ethyl}-5-fluoropyridine-3-carboxamide]",39,154
"CC(C)(CO)NC(=O)c1ccccc1CC[C@]1(O)CCC2=Cc3c(cnn3-c3ccc(F)cc3)C[C@@]21C1CC1 [Example 45, 2-{2-[(4aR,5R)-4a-Cyclopropyl-1-(4-fluorophenyl)-5-hydroxy-1,4,4a,5,6,7-hexahydrocyclopenta[f]indazol-5-yl]ethyl}-N-(1-hydroxy-2-methylpropan-2-yl)benzamide]",39,22
"O=C(NC1(CO)CC1)c1ccccc1CC[C@]1(O)CCC2=Cc3c(cnn3-c3ccc(F)cc3)C[C@@]21C1CC1 [Example 46, 2-{2-[(4aR,5R)-4a-Cyclopropyl-1-(4-fluorophenyl)-5-hydroxy-1,4,4a,5,6,7-hexahydrocyclopenta[f]indazol-5-yl]ethyl}-N-[1-(hydroxymethyl)cyclopropyl]benzamide]",34,20
"NC(=O)CNC(=O)c1ccccc1CC[C@]1(O)CCC2=Cc3c(cnn3-c3ccc(F)cc3)C[C@@]21C1CC1 [Example 47, N-(2-Amino-2-oxoethyl)-2-{2-[(4aR,5R)-4a-cyclopropyl-1-(4-fluorophenyl)-5-hydroxy-1,4,4a,5,6,7-hexahydrocyclopenta[f]indazol-5-yl]ethyl}benzamide]",46,17
"CC(C)(CO)NC(=O)c1cc(F)cnc1CC[C@]1(O)CCC2=Cc3c(cnn3-c3ccc(F)cc3)C[C@@]21C1CC1 [Example 48, 2-{2-[(4aR,5R)-4a-Cyclopropyl-1-(4-fluorophenyl)-5-hydroxy-1,4,4a,5,6,7-hexahydrocyclopenta[f]indazol-5-yl]ethyl}-5-fluoro-N-(1-hydroxy-2-methylpropan-2-yl)pyridine-3-carboxamide]",50,26
"NC(=O)c1c(C2CC2)ccnc1CC[C@]1(O)CCC2=Cc3c(cnn3-c3ccc(F)cc3)C[C@@]21C1CC1 [Example 49, 4-Cyclopropyl-2-{2-[(4aR,5R)-4a-cyclopropyl-1-(4-fluorophenyl)-5-hydroxy-1,4,4a,5,6,7-hexahydrocyclopenta[f]indazol-5-yl]ethyl}pyridine-3-carboxamide]",30,9
"O=C(NCCO)c1ccccc1CC[C@]1(O)CCC2=Cc3c(cnn3-c3ccc(F)cc3)C[C@@]21C1CC1 [Example 50, 2-{2-[(4aR,5R)-4a-Cyclopropyl-1-(4-fluorophenyl)-5-hydroxy-1,4,4a,5,6,7-hexahydrocyclopenta[f]indazol-5-yl]ethyl}-N-(2-hydroxyethyl)benzamide]",57,12
"CC[C@]12Cc3cnn(-c4ccc(F)cc4)c3C=C1CC[C@@]2(O)CCc1ccccc1S(=O)(=O)CC [Example 51, (4aS,5R)-4a-Ethyl-5-{2-[2-(ethylsulfonyl)phenyl]ethyl}-1-(4-fluorophenyl)-1,4,4a,5,6,7-hexahydrocyclopenta[f]indazol-5-ol]",28,92
"CC[C@]12Cc3cnn(-c4ccc(F)cc4)c3C=C1CC[C@@]2(O)CCc1ncccc1C(N)=O [Example 52, 2-{2-[(4aS,5R)-4a-Ethyl-1-(4-fluorophenyl)-5-hydroxy-1,4,4a,5,6,7-hexahydrocyclopenta[f]indazol-5-yl]ethyl}pyridine-3-carboxamide]",59,64
"CC[C@]12Cc3cnn(-c4ccc(F)cc4)c3C=C1CC[C@@]2(O)CCc1ncc(F)cc1C(N)=O [Example 53, 2-{2-[(4aS,5R)-4a-Ethyl-1-(4-fluorophenyl)-5-hydroxy-1,4,4a,5,6,7-hexahydrocyclopenta[f]indazol-5-yl]ethyl}-5-fluoropyridine-3-carboxamide]",49,77
"COc1ccnc(CC[C@]2(O)CCC3=Cc4c(cnn4-c4ccc(F)cc4)C[C@@]32C2CC2)c1C(N)=O [Example 54, 2-{2-[(4aR,5R)-4a-Cyclopropyl-1-(4-fluorophenyl)-5-hydroxy-1,4,4a,5,6,7-hexahydrocyclopenta[f]indazol-5-yl]ethyl}-4-methoxypyridine-3-carboxamide]",23,35
